Type in all cases: cell-based
The subject of test [1] is Rat adult neural stem cell line ANSC-7 cells. Kind of test: Test Example 1: Proliferation promoting activity on neural stem cells (1), Hoechst 33342 nucleus staining fluorescence. The conditions noted are these: 96 hours culture, nucleus-stain fluorescence, read-out: proliferation promoting activity (relative value, negative control = 100%); for activity at 0.32 µM: 0.32 μmol/L; for activity at 1 µM: 1.0 μmol/L. As to the method:
Rat adult neural stem cell line ANSC-7 cells prepared by the method described in the following Reference Example 1 were suspended in DMEM/F12 medium (manufactured by Invitrogen) supplemented with N-2 additives [5 μg/mL insulin (manufactured by Sigma), 100 μg/mL bovine apotransferrin (manufactured by Sigma), 6.3 ng/mL progesterone (manufactured by Sigma), 1.6 μg/mL putrescine (manufactured by Sigma) and 5.2 ng/mL sodium selenate (manufactured by Sigma)] and an antibiotics mixed liquid [0.05 U/mL penicillin and 0.05 μg/mL streptomycin (manufactured by Invitrogen)] (to be referred to as assay medium hereinafter), at a density of 1.7×10^5 cells/mL; inoculated at 0.1 mL in a 96 well plate (manufactured by Costar) of which surface was processed with polyornithine and laminin; and cultured overnight at 37° C. under an atmosphere of 5% CO2. Thereafter, 50 μl of the culture supernatant was removed, and 50 μl of a test compound which was serially diluted with the assay medium to 2 times of the final concentration or DMSO (negative control) was added to each well. After the culturing for 96 hours, 50 μl of the culture supernatant was removed, and 50 μl of a 15% neutral buffered formalin liquid (manufactured by Wako Pure Chemical Industries, Ltd.) cooled to be 4° C. was added to each well and allowed to stand for 1 hour. Thereafter, by washing twice using PBS containing 0.3% Triton X-100 (manufactured by Nacalai Tesque) (hereinafter TBST), 50 μl of Hoechst 33342 (manufactured by Nacalai Tesque) adjusted to 3.3 μmol/L with 5% skim milk solution diluted with PBS containing 0.5% Triton X-100 was added to each well and the nucleus was stained overnight at 4° C. in the dark. After washing twice with 100 μl/well of TBST and then once with PBS and subsequently soaking in 100 μl/well of PBS, fluorescence intensity of the nucleus-stained cells was measured using a fluorometer FDSS 6000 (Hamamatsu Photonics K.K.). By regarding the measured value of well to which the cells were not inoculated as 0%, and the measured value of negative control as 100%, relative values in the test compound addition group were calculated.
(§1) After putting a 7-week-old Sprague Dawley Rat to sleep by ether anesthesia and subsequent decapitation, the skull was cut open from the parietal region to extract the brain. Under a microscope, tissues including circumventricular region were isolated from the extracted brain by using ophthalmic scissors and tweezers. The tissues including circumventricular region were cut into fragments of about 1 mm^3 using ophthalmic scissors and scalpels and then subjected to 30 minutes of digestion reaction at 37° C. in 5 mL of Hanks' buffer containing 2.5 U/mL of papain, 250 U/mL of DNase (all manufactured by Worthington, Freehold, N.J.) and 1 U/mL of a neutral protease (Dispase, manufactured by Boehringer-Mannheim Corp.) (HBSS buffer, manufactured by Invitrogen). The mixture of cells and tissues obtained by the reaction was washed three times with DMEM (manufactured by Invitrogen) containing 10% fetal bovine serum (manufactured by Hyclone) and then dissolved in the DMEM containing 10% fetal bovine serum, followed by removing the undigested materials using a nylon mesh of 10 μm.
(§2) The thus obtained cells crude extract was cultured overnight on a culture dish of 10 cm, in an incubator of 37° C. using DMEM/F12 medium (manufactured by Invitrogen) containing 10% fetal bovine serum. On the next day, the medium was replaced with DMEM/F12 containing 1% of N-2 additives (manufactured by Invitrogen) and 20 ng/mL of FGF 2 (manufactured by Pepro Tech) and the culturing was started. Once in 3 days, half of the medium was replaced with new DMEM/F12 containing 1% of N-2 additives and 20 ng/mL of FGF 2 and the culturing was continued.
When a small colony consisted of small cells was formed, it was treated with 1% trypsin for 30 seconds to 1 minute, and the cells detached were harvested. […]

For test [2] the test system is unchanged. The experiment in a line: Test Example 3: Proliferation promoting activity on neural stem cells (3), same manner as Test Example 2. The settings on record: 96 h; for activity at 3.2 µM: 3.2 μmol/L; for activity at 0.001 µM: 1 nmol/L; for activity at 0.01 µM: 10 nmol/L. On the procedure:
(§3) Rat adult neural tem cell line ANSC-7 cells prepared by the method described in the following Reference Example 1 were suspended in the assay medium at a density of 1.7×10^5 cells/mL; inoculated in 0.1 mL portion in a 96 well plate (manufactured by Costar) of which surface was processed with polyornithine and laminin; and cultured overnight at 37° C. under an atmosphere of 5% CO2. Thereafter, 50 μl of the culture supernatant was removed, and 50 μl of a test compound which was serially diluted with the assay medium to 2 times of the final concentration or DMSO (negative control) was added to each well. After the culturing for 96 hours, 10 μl per well of a viable cell counting reagent SF (manufactured by Nacalai Tesque) was added to the culture. After culturing at 37° C. for 3 hours in a 5% CO2 incubator and subsequent stirring for 1 minute, absorbance at 490 nm (control wavelength 655 nm) was measured using a microplate spectrophotometer Emax (manufactured by Molecular Device). By regarding the measured value of well to which the cells were not inoculated as 0%, and the measured value of negative control as 100%, relative values in the test compound addition group were calculated.
Each of the tests was carried out in the same manner as in Test Example 2.
as §1, §2
(§4) When a small colony consisted of small cells was formed, it was treated with 1% trypsin for 30 seconds to 1 minute, and the cells detached were harvested. The harvested cells were inoculated on a multiple well culture dish (manufactured by Fisher Scientific) which had been coated at room temperature overnight using 10 μg/mL of polyornithine (manufactured by Sigma) and at 37° C. overnight using 5 μg/mL of mouse EHS tumor-derived laminin (Becton Dickinson), and the culturing was continued.
(§5) By continuing the above-mentioned culturing, small cells having small protrusion and thickness were concentrated. The cells were used as adult neural stem cells in the above-mentioned tests (Test Examples 1 to 3).

Test [3] shares this test system. The experiment in a line: Test Example 2: Proliferation promoting activity on neural stem cells (2), viable cell counting reagent SF absorbance. The settings on record: 96 hours culture, absorbance 490 nm, read-out: proliferation promoting activity (relative value, negative control = 100%); for activity at 0.32 µM: 0.32 μmol/L; for activity at 1 µM: 1.0 μmol/L. On the procedure: as §3, §1, §2, §4, §5

[4] abbreviates: same manner as Test Example 2, read-out: proliferation promoting activity (relative value, negative control = 100%).

The structures appear in SMILES notation.

On to `C=C(CCC1(C)OC2OC3CC1C21CCC2C4(C)CCC(OC(C)=O)CC4CC4OC42C31)C(C)C` (stereo not shown) [Compound A1], for which the activity at 0.32 µM in test [1] was not below 160%.

Consider `C=C(CCC1(C)OC2OC3CC1C21CCC2C4(C)CCC(=O)CC4CC4OC42C31)C(C)C` (stereo not shown) [Compound A2], for which the activity at 0.32 µM in test [1] was not below 160%. Turning to `CC(C)C(C)CCC1(C)OC2OC3CC1C21CCC2C4(C)CCC(O)CC4CC4OC42C31` (stereo not shown) [Compound A3], the activity at 0.32 µM in test [1] is not below 160%.

Regarding `C=C(CCC1(C)OC2OC3CC1C21CCC2C4(C)CCC(O)CC4CCC2(O)C31)C(C)C` (stereo not shown) [Compound A5], the activity at 0.32 µM in test [1] is not below 160%. Regarding `CC(C)C(C)/C=C/C(C)C1CCC2/C(=C/C(=O)OC3(C)CCC(O)CC3=O)C(=O)CCC21C` (stereo not shown) [Compound AA], the activity at 3.2 µM in test [2] (setting [4]) was 120%. As for `C=C(CCC1(C)OC2OC3CC1C21CCC2C4(C)CCC(O)CC4CC4OC42C31)C(C)C` (stereo not shown) [Compound A], the activity at 0.32 µM is not below 150% in test [1] and not below 130% in test [3]. As for `CC(C)C(C)/C=C/C(C)C1CCC2/C(=C/C(=O)OC3CCC(C)(O)C(=O)C3)C(=O)CCC21C` (stereo not shown) [Compound BB], the activity at 3.2 µM in test [2] (setting [4]) is 120%. Turning to `C=C(CCC1(C)OC2OC3CC1C21CCC2C(=CCC4CC(O)CCC42C)C31)C(C)C` (stereo not shown) [Compound B], the activity at 1 µM in test [1] was not below 140%. `C=C(CCC(C)(O)C1CCC2C3=CCC4CC(O)CCC4(C)C3CCC21C)C(C)C` (stereo not shown) [Compound C]: the activity at 0.32 µM in test [1] is not below 150%; in test [3], not below 130%. As for `C=C(CCC(=C)C1CC(O)C2C3=CCC4CC(O)CCC4(C)C3CCC12C)C(C)C` (stereo not shown) [Compound D], the activity at 1 µM is not below 140% in test [1] and not below 130% in test [3]. Regarding `C=C(CCC(C)C1CCC2C3=C(CCC21C)C1(C)CCC(O)CC1C(=O)O3)C(C)C` (stereo not shown) [Compound E], the figures for the activity at 0.32 µM in test [1] and in test [3] were not below 150% and not below 130%, respectively.

For the compound `C=C(CCC(C)C1CCC2C3=C(CCC21C)C1(C)CCC(O)CC1CC3=O)C(C)C` (stereo not shown) [Compound F], the activity at 1 µM in test [1] was not below 140%; in test [3] it was not below 130%. On to `C=C(CCC1(C)OC(=O)C23CCC4C5(C)CCC(O)CC5CC5OC54C2C(O)CC13)C(C)C` (stereo not shown) [Compound H], for which the activity at 1 µM in test [3] was not below 130%. Regarding `C=C(CCC(C)(O)C1CC(O)C2C3=CCC4CC(O)CCC4(C)C3CCC21C)C(C)C` (stereo not shown) [Compound J], in test [3] (3.2 μmol/L), the activity at 3.2 µM was not below 125%.

On to `C=C(CCC(=C)C1CC(O)C2C3=CCC4CC(=O)CCC4(C)C3CCC12C)C(C)C` (stereo not shown) [Compound K], for which the activity at 1 µM in test [3] was not below 130%.

In the case of `C=C(CCC1(C)OC2OC3CC1C21CCC2C(=CC=C4CC(O)CCC42C)C31)C(C)C` (stereo not shown) [Compound L], in test [3], the activity at 0.32 µM was not below 130%. As for `COC(C)(C)/C=C/c1cccc2c3c([nH]c12)C(C)(C)C1CC24CCCN2CC1(C3)NC4=O` (stereo not shown) [Compound M], in test [2] (read-out: proliferation promoting activity (relative value, negative control = 100%)), the activity at 0.32 µM was 120%.

In the case of `CC(C)=CC(=O)c1cccc2c3c([nH]c12)C(C)(C)C1CC24CCCN2CC1(C3)NC4=O` (stereo not shown) [Compound N], the activity at 1 µM in test [2] (1 μmol/L, same manner as Test Example 2, read-out: proliferation promoting activity (relative value, negative control = 100%)) came to 120%. As for `C=C(CCC(C)C1CCC2=C3OC(=O)C4CC(O)CCC4(C)C3CCC21C)C(C)C` (stereo not shown) [Compound U], the activity at 0.001 µM in test [2] (setting [4]) was not below 120%.

Consider `C=C(CCC(C)C1CC=C2C3=C(CCC21C)C1(C)CCC(O)CC1C(=O)O3)C(C)C` (stereo not shown) [Compound V], for which the activity at 0.001 µM in test [2] (setting [4]) was not below 120%. For the compound `C=C(CCC(C)C1CCC2C3C(=O)CC4CC(O)CCC4(C)C3CCC12C)C(C)C` (stereo not shown) [Compound W], the activity at 0.01 µM in test [2] (setting [4]) is not below 120%.

Consider `C=C(/C=C/C(C)C1CCC2C3C(=O)CC4CC(O)CCC4(C)C3CCC12C)C(C)C` (stereo not shown) [Compound X], for which the activity at 0.01 µM in test [2] (setting [4]) was not below 120%. Turning to `C=C(CCC(C)(O)C1CC(O)C2=C3C(O)CC4CC(O)CCC4(C)C3CCC21C)C(C)C` (stereo not shown) [Compound Y], the activity at 3.2 µM in test [2] (setting [4]) came out at 120%.

The record behind these values is patent publication US20110020931A1, “PROLIFERATION PROMOTING AGENT FOR NEURAL STEM CELLS” (KYOWA HAKKO KIRIN CO., LTD., priority 2008, published 2011).
